This note sets out measurements from publication PMC11285368, “Chasing Red Herrings: Palladium Metal Salt Impurities Feigning KRAS Activity in Biochemical Assays” (Journal of Medicinal Chemistry, 2024).

By IC50 is commonly meant the concentration that gives 50% inhibition.

A value given as a limit tells only on which side of the number the result lay.

What all share (format): biochemical
Assay [1] deals with off-target. Put plainly: UPA-UPAR AlphaScreen, Target #2. As for the experimental part: (§1) Metal salt solutions for the metal ion interference set (MIIS) were prepared as 10 mM stock solutions in DMSO (see Table 3). All metal salts used have been purchased at highest industrial grade.
(In general: Alpha assays give light when donor and acceptor beads are brought close together.)

Assay [2] addresses T1, SOS1 (Homo sapiens, UniProt Q07889).
T1 sequence (Q07889 1-1333): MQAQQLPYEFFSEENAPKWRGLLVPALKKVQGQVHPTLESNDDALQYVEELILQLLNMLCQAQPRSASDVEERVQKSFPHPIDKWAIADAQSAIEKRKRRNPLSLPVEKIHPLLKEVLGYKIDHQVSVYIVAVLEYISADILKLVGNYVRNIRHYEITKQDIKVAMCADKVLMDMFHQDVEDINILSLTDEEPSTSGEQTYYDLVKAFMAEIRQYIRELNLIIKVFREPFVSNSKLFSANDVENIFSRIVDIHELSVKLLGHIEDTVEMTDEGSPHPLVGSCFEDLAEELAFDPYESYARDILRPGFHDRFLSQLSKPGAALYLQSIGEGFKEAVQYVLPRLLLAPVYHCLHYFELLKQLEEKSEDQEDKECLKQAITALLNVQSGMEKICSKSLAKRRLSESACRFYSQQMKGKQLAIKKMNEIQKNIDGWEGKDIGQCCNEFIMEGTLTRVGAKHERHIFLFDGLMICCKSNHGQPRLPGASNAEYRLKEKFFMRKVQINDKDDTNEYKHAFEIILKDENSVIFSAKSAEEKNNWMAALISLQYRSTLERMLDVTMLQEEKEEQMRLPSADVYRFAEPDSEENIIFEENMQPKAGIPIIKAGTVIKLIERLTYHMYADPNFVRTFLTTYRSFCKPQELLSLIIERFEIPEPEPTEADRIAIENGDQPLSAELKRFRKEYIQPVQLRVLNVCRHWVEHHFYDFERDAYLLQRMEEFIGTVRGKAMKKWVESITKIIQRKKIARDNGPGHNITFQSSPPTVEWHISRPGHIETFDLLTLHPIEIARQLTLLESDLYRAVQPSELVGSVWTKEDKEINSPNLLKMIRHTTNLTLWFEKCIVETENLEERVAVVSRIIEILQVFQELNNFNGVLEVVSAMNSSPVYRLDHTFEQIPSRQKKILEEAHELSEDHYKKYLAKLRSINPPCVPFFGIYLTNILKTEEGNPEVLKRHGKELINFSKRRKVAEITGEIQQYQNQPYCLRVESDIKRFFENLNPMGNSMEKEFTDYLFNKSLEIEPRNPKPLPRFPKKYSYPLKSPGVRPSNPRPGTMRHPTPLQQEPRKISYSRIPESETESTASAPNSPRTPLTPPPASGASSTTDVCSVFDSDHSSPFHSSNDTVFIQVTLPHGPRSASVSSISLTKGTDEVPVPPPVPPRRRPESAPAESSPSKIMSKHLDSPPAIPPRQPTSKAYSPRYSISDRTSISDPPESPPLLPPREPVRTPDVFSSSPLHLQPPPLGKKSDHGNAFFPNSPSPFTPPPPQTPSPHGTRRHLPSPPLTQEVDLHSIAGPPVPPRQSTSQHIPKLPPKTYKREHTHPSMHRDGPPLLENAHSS
As to the kind of experiment: SOS1 AlphaScreen, Target #1. As for the experimental part:
as §1

Another assay concerns the target MDM2 (Homo sapiens, UniProt Q00987). As to the kind of experiment: MDM2 AlphaScreen, Target #1. As for the experimental part: as §1
Assay [3] addresses T1, SOS1. As to the kind of experiment: SOS1 TR-FRET. Particulars: read-out: Target #1 IC50. The procedure: as §1
Background: Time-resolved FRET reads energy transfer from a long-lived donor to a nearby acceptor.

The target in another assay is UPAR (Homo sapiens, UniProt Q03405). As to the kind of experiment: UPA-UPAR AlphaScreen, Target #1. As for the experimental part: as §1
Another assay has as its target T2, FKBP51 (Homo sapiens, UniProt Q13451).
T2 sequence (Q13451 1-457): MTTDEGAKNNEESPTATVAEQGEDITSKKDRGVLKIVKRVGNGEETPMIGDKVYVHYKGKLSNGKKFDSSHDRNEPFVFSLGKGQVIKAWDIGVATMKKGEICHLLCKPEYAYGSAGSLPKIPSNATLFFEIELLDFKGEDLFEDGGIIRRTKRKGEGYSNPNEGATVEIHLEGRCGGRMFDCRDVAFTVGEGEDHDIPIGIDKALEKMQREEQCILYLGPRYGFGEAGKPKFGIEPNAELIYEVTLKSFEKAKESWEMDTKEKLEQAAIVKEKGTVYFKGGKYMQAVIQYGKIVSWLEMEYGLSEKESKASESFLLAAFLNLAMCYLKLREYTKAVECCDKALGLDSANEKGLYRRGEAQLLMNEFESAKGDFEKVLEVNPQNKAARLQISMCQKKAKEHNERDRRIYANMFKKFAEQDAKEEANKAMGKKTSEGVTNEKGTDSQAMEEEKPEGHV
Put plainly: FKBP51 AlphaScreen, Target #1. As for the experimental part:
as §1

In a further assay the target is BCL6 (Homo sapiens, UniProt P41182). Put plainly: BCL6 Fluorescence Polarization. As to conditions: read-out: Target #1 IC50. The procedure:
as §1

A further assay has as its system off-target (int.). As to the kind of experiment: WRN ADP-Glo, Target #3. The procedure: as §1
The subject of assay [4] is off-target. As to the kind of experiment: FKBP51 AlphaScreen, Target #2. The procedure: as §1
Assay [5] concerns off target. Put plainly: FKBP51 AlphaScreen, Target #3. As for the experimental part:
as §1

In a further assay the test system is KRAS GDP. As to the kind of experiment: KRAS AlphaScreen, Target #1. The procedure:
as §1

Assay [6] concerns off target. Put plainly: KRAS AlphaScreen, Target #3. As for the experimental part: as §1
Assay [7] relates to off-target. Put plainly: SOS1 AlphaScreen, Target #2. The procedure: as §1

MDM2, sequence (Q00987 whole entry, species assumed): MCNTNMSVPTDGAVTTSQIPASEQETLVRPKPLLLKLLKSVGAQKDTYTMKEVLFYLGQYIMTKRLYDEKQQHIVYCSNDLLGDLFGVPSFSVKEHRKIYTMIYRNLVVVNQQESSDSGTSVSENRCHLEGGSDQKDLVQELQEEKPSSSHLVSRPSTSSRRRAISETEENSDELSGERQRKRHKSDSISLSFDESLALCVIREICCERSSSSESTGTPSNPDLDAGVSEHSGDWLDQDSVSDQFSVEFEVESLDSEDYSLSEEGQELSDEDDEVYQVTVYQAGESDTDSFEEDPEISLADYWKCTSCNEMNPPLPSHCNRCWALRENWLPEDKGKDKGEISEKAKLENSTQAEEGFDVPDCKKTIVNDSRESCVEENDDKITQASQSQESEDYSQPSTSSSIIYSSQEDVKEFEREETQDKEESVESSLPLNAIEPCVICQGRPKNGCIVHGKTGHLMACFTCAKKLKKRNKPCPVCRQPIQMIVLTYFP
UPAR, sequence (Q03405 23-305 limits assumed, species assumed): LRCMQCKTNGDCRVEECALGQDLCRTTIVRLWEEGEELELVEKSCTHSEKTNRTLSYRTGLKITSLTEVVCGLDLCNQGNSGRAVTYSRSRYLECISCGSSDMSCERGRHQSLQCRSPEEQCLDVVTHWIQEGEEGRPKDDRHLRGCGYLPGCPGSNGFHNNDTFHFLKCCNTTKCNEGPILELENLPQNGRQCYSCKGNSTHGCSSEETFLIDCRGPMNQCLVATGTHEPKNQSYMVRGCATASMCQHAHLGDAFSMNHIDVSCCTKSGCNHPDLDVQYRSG

For the molecule `O=[N+]([O-])[O-].O=[N+]([O-])[O-].O=[N+]([O-])[O-].[Al+3]` [Al(NO3)3, Aluminum nitrate], the half-maximal inhibitory concentration (IC50) was greater than 10 µM in the assay on off-target [1]; greater than 10 µM on SOS1 [2]; greater than 10 µM against MDM2; greater than 10 µM on SOS1 [3]; greater than 10 µM on UPAR; less than 1 µM against FKBP51. Also, the IC50 was greater than 10 µM at BCL6; 1 to 10 µM in the assay on off-target (int.); 1 to 10 µM in the assay with off-target [4]; greater than 10 µM in the assay with off target [5]; greater than 10 µM in the assay on KRAS GDP; greater than 10 µM in the assay with off target [6]. In the assay with off-target [7], this molecule yielded a half-maximal inhibitory concentration (IC50) greater than 10 µM.
Turning to `[Cl-].[Cl-].[Co+2]` [CoCl2, Cobalt(II) chloride], the IC50 with off-target [1] is greater than 10 µM; at SOS1 [2], greater than 10 µM; at MDM2 it was greater than 10 µM; on SOS1 [3], greater than 10 µM; at UPAR it was 1 to 10 µM; at FKBP51, greater than 10 µM. Further, the IC50 on BCL6, with off-target (int.), in the assay on off-target [4], in the assay on off target [5], in the assay with KRAS GDP and in the assay with off target [6] was greater than 10 µM each time. The molecule further showed a half-maximal inhibitory concentration (IC50) with off-target [7] greater than 10 µM.
In the case of `[Cl][Cu][Cl]` [CuCl2, Copper(II) chloride], the IC50 is greater than 10 µM with off-target [1]; 1 to 10 µM against SOS1 [2]; greater than 10 µM on MDM2; greater than 10 µM at SOS1 [3]; less than 1 µM against UPAR; greater than 10 µM on FKBP51. The half-maximal inhibitory concentration (IC50) at BCL6, with off-target (int.), in the assay on off-target [4], in the assay with off target [5], in the assay on KRAS GDP and with off target [6] was greater than 10 µM each time. The molecule also had an IC50 with off-target [7] greater than 10 µM.
Regarding `[Cl][Fe][Cl]` [FeCl2, Iron(II) chloride], the IC50 with off-target [1] was greater than 10 µM; on SOS1 [2], greater than 10 µM; on MDM2, greater than 10 µM; at SOS1 [3], 1 to 10 µM; on UPAR, greater than 10 µM; at FKBP51, greater than 10 µM. In addition, the IC50 on BCL6 was greater than 10 µM; with off-target (int.), greater than 10 µM; in the assay on off-target [4] it was greater than 10 µM; with off target [5] it was greater than 10 µM; in the assay on KRAS GDP, 1 to 10 µM; in the assay on off target [6], greater than 10 µM. In the assay with off-target [7], this molecule returned an IC50 greater than 10 µM.
As to `[Cl][Fe]([Cl])[Cl]` [FeCl3, Iron(III) chloride], the half-maximal inhibitory concentration (IC50) in the assay on off-target [1] is greater than 10 µM; on SOS1 [2], greater than 10 µM; on MDM2, greater than 10 µM; at SOS1 [3], 1 to 10 µM; at UPAR, greater than 10 µM; against FKBP51, greater than 10 µM. For the same molecule, the half-inhibitory concentration (IC50) on BCL6 is greater than 10 µM; in the assay with off-target (int.), greater than 10 µM; in the assay on off-target [4], greater than 10 µM; in the assay on off target [5], greater than 10 µM; in the assay with KRAS GDP it was 1 to 10 µM; in the assay with off target [6] it was greater than 10 µM. The molecule further returned a half-maximal inhibitory concentration (IC50) in the assay on off-target [7] greater than 10 µM.
Turning to `[Cl-].[Cl-].[Mg+2]` [MgCl2, Magnesium chloride], the IC50 with off-target [1], against SOS1 [2], against MDM2, on SOS1 [3], against UPAR and on FKBP51 was greater than 10 µM throughout. Further, the IC50 on BCL6, in the assay on off-target (int.), with off-target [4], with off target [5], in the assay on KRAS GDP and with off target [6] was greater than 10 µM throughout. This molecule also came in with an IC50 in the assay with off-target [7] greater than 10 µM.
For the molecule `[Cl][Mn][Cl]` [MnCl2, Manganese(II) chloride], the IC50 in the assay on off-target [1], on SOS1 [2], on MDM2, at SOS1 [3], against UPAR and on FKBP51 was greater than 10 µM throughout. For the same molecule, the IC50 at BCL6, in the assay on off-target (int.), with off-target [4], in the assay on off target [5], with KRAS GDP and in the assay on off target [6] was greater than 10 µM in each case. In the assay on off-target [7], this molecule registered a half-inhibitory concentration (IC50) greater than 10 µM.
